Assay results published in ChEMBL document CHEMBL6121007, “Design, synthesis and evaluation of pyrimidine derivatives as sedative-hypnotic agents” (Eur J Med Chem, 2025).
Activity calls are given as the source filed them. The calls are words filed in the database; no cut-off is given here.

What was measured:
Type in all cases: functional, organism-based
[1] = tested on: Mus musculus; assay: Sedative-hypnotic activity in mouse assessed as decrease in number of square crossing at 50 mg/kg, ip administrated as single dose and measured after 30 mins by open field test
[2] = tested on: Mus musculus; assay: Sedative-hypnotic activity in mouse assessed as reduction in grip strength score at 50 mg/kg, ip administrated as single dose and measured after 30 mins by grip strength test
[3] = tested on: Mus musculus; assay: Sedative-hypnotic activity in mouse assessed as increase in latency time of first step out of center square at 5 mg/kg, ip administrated as single dose and measured after 30 mins by open field test

For `CCn1c2ccccc2c2cc(Nc3ccnc(Nc4ccc5sc(C)nc5c4)n3)ccc21`, which Activity [1] is on record?
The Activity was “Active”.

And the Activity [2]?
Its Activity is “Active”.

What does the source list for `CCn1c2ccccc2c2cc(Nc3ccnc(Nc4ccc(C(F)(F)F)cc4)n3)ccc21`?
Activity [1]: Active; Activity [2]: Active

How did the Activity [1] turn out when `CCn1c2ccccc2c2cc(Nc3ccnc(Nc4cc(C)cc(F)c4)n3)ccc21` was run?
The Activity was “Active”.

What about the Activity [2] of the same molecule?
Its Activity is “Active”.

Which Activity [1] does the source give for `CCn1c2ccccc2c2cc(Nc3ccnc(Nc4ccc(CC(C)C)cc4)n3)ccc21` here?
Its Activity is “Active”.

What about the Activity [2] of the same molecule?
Its Activity is “Active”.

`CCn1c2ccccc2c2cc(Nc3ccnc(Nc4ccc5c(c4)c4ccccc4n5CC)n3)ccc21` was tested. Which Activity [1] did it give?
The Activity was “Active”.

What about the Activity [2] of the same molecule?
Its Activity is “Active”.

What does the source list for `Cc1nc2cc(Nc3ccnc(Nc4ccc5c(cnn5C)c4)n3)ccc2s1`?
Activity [1]: Active; Activity [2]: Active

Which results are given for `CCn1c2ccccc2c2cc(Nc3ccnc(Nc4cnn(C)c4)n3)ccc21`?
Activity [1]: Active; Activity [2]: Active

`CCn1c2ccccc2c2cc(Nc3ccnc(Nc4cc(OC)cc(OC)c4)n3)ccc21` was tested. Which Activity [1] did it give?
Its Activity is “Active”.

What about the Activity [2] of the same molecule?
Its Activity is “Active”.

`CCn1c2ccccc2c2cc(Nc3ccnc(Nc4ccc5[nH]c(C)cc5c4F)n3)ccc21` was tested. Which Activity [1] did it give?
The Activity was “Active”.

What about the Activity [2] of the same molecule?
The Activity was “Active”.

With `Cc1nc2cc(Nc3ccnc(Nc4ccc(F)c(C)c4)n3)ccc2s1` as the molecule, how does the Activity [1] read?
Its Activity is “Active”.

And the Activity [2]?
Its Activity is “Active”.

With `CCn1c2ccccc2c2cc(Nc3ccnc(Nc4ccc(C)cc4)n3)ccc21` as the molecule, how does the Activity [1] read?
Its Activity is “Active”.

What about the Activity [2] of the same molecule?
The Activity was “Active”.

Which Activity [1] does the source give for `Cc1nc2cc(Nc3ccnc(Nc4ccc5sc(C)nc5c4)n3)ccc2s1` here?
The Activity was “Active”.

And the Activity [2]?
The Activity was “Active”.

Which Activity [1] does the source give for `CCn1c2ccccc2c2cc(Nc3ccnc(Nc4ccc(N5CCCCC5)cc4)n3)ccc21` here?
Its Activity is “Active”.

What about the Activity [2] of the same molecule?
The Activity was “Active”.

With `COc1cc(Nc2nccc(Nc3ccc4sc(C)nc4c3)n2)ccc1O` as the molecule, how does the Activity [1] read?
Its Activity is “Active”.

And the Activity [2]?
The Activity was “Active”.

`CCn1c2ccccc2c2cc(Nc3ccnc(Nc4ccc5nc(C)[nH]c5c4)n3)ccc21` was tested. Which Activity [1] did it give?
The Activity was “Active”.

And the Activity [2]?
Its Activity is “Active”.

`Cc1cc2c(F)c(Nc3nccc(Nc4ccc5sc(C)nc5c4)n3)ccc2[nH]1` was tested. Which Activity [1] did it give?
The Activity was “Active”.

And the Activity [2]?
The Activity was “Active”.

What does the source list for `Cc1nc2ccc(Nc3nccc(Nc4ccc5sc(C)nc5c4)n3)cc2[nH]1`?
Activity [1]: Active; Activity [2]: Active

What does the source list for `CCn1c2ccccc2c2cc(Nc3nccc(Nc4ccc5sc(C)nc5c4)n3)ccc21`?
Activity [1]: Active; Activity [2]: Active

Which Activity [3] does the source give for `CN1C(=O)CN=C(c2ccccc2)c2cc(Cl)ccc21` here?
The Activity was “inactive”.

What does the source list for `CCn1c2ccccc2c2cc(Nc3ccnc(Nc4ccc(C(C)C)cc4)n3)ccc21`?
Activity [1]: Active; Activity [2]: Active

Which results are given for `CCn1cc(Nc2nccc(Nc3ccc4c(c3)c3ccccc3n4CC)n2)cn1`?
Activity [1]: Active; Activity [2]: Active

Which results are given for `CCc1ccc(Nc2nccc(Nc3ccc4c(c3)c3ccccc3n4CC)n2)cc1`?
Activity [1]: Active; Activity [2]: Active

What does the source list for `COC(=O)c1ccc(Nc2nccc(Nc3ccc4sc(C)nc4c3)n2)cc1OC`?
Activity [1]: inactive; Activity [2]: Active

For `CCn1c2ccccc2c2cc(Nc3ccnc(Nc4ccc(F)c(C)c4)n3)ccc21`, which Activity [1] is on record?
Its Activity is “Active”.

And the Activity [2]?
Its Activity is “Active”.

How did the Activity [1] turn out when `CCn1c2ccccc2c2cc(Nc3ccnc(Nc4ccc5c(cnn5C)c4)n3)ccc21` was run?
The Activity was “Active”.

What about the Activity [2] of the same molecule?
Its Activity is “Active”.
